Series [1] in a line: Determination of thermodynamic solubility in phosphate buffer. Conditions: pH 7.4, aqueous buffer, thermodynamic from solid, ammonium phosphate buffer pH7.4, 290 mOsm, 37° C., nominal 1 mg/mL, read-out: Solubility in PO4 buffer. In kind it is physicochemical. Here is the method:
Determination of Thermodynamic Solubility in Phosphate Buffer
The thermodynamic solubility of compound was determined in Ammonium Phosphate Buffer (pH7.4, 290 mOsm). Compounds were made up at a nominal concentration of 1 mg/mL, vortexed then placed on a shaker for 1 h, 37° C. at approximately 950 rpm. Following incubation samples were transferred to eppendorf tubes and centrifuged at 15,000 g (r.c.f.) for 10 minutes at 37° C. The concentration of compound in the supernatant was determined by LC-MS/MS analysis using a calibration line prepared from a DMSO stock.

Series [2] deals with Human plasma kallikrein (Homo sapiens (Human), UniProt P03952). Put plainly: Determination of the IC50 for plasma kallikrein. In kind it is biochemical. The conditions noted are these: 37° C., substrate H-DPro-Phe-Arg-AFC, read-out: IC50 (human PKal). The procedure, abridged: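 Human plasma kallikrein incubated at 37° C with fluorogenic substrate H-DPro-Phe-Arg-AFC and varying compound concentrations. Initial reaction rate followed by absorbance change at 410 nm to give residual activity and IC50.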

The target in series [3] is Human KLK1 (Homo sapiens (Human), UniProt P06870). Kind of series: Determination of the IC50 for KLK1. Conditions: Human KLK1, 37° C., substrate H-DVal-Leu-Arg-AFC; Table 13. In kind it is biochemical. The procedure, abridged: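 Human KLK1 incubated at 37 °C with fluorogenic substrate H-DVal-Leu-Arg-AFC and a range of test compound concentrations. Residual activity was taken as initial reaction rate from absorbance change at 410 nm, and the IC50 derived from it.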

≈ marks a conversion by molar mass, not a printed value. Where only a bound is given, the exact number is not on record here.

The term solubility denotes the dissolved amount per volume that the medium holds. Broadly, the IC50 is the concentration that gives 50% inhibition.

Sequence of Human KLK1 (P06870 25-262): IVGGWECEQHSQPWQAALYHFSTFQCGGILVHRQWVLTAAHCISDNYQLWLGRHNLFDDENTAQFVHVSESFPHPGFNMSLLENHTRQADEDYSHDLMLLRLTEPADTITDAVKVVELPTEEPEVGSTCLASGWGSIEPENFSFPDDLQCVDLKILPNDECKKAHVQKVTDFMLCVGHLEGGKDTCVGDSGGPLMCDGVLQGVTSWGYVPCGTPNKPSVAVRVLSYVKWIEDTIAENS
Sequence of Human plasma kallikrein (P03952 391-638): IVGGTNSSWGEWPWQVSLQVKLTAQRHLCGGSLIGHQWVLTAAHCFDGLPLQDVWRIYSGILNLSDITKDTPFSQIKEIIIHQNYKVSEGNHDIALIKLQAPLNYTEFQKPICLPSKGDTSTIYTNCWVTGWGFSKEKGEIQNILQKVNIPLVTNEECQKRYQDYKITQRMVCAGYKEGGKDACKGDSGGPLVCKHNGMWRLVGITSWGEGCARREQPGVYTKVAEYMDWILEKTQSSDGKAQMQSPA
Sequence of Human plasma kallikrein (P03952 20-390 partner): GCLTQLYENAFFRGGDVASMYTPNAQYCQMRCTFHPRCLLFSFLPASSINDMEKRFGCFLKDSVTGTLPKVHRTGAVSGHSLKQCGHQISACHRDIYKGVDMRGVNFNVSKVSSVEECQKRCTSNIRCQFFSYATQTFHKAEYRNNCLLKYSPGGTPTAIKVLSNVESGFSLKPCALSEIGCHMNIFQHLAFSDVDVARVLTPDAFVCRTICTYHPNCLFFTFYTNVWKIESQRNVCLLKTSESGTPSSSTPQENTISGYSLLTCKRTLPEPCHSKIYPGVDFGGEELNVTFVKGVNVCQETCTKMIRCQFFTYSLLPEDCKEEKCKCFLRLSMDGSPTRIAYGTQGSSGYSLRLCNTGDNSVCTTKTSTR

Take `CCOc1ccc(C[C@@H](NC(=O)c2ccccc2)C(=O)N[C@@H](Cc2ccccc2)C(=O)NCc2ccc(CN)c(Cl)c2)cc1` [Example 155, N-[(R)-1-[(S)-1-(4-Aminomethyl-3-chloro-benzylcarbamoyl)-2-phenyl-ethylcarbamoyl]-2-(4-ethoxy-phenyl)-ethyl]-benzamide]: the solubility at 1 h in series [1] worked out at 0.44 µg/mL (≈ 0.718 µM). Also, the IC50 in series [2] is 22 nM; in series [3], more than 10000 nM.
For `CCOc1ccc(C[C@@H](NC(=O)c2ccccc2)C(=O)N[C@@H](Cc2cccnc2)C(=O)NCc2ccc(CN)cc2)cc1` [Example 145, N-[(R)-1-[(S)-1-(4-Aminomethyl-benzylcarbamoyl)-2-pyridin-3-yl-ethylcarbamoyl]-2-(4-ethoxy-phenyl)-ethyl]-benzamide], in that order: 68.9 µg/mL (≈ 119 µM), 25 nM and more than 10000 nM.
In the same order, the values of `CCOc1ccc(C[C@@H](NC(=O)c2ccc(Cl)cc2)C(=O)N[C@@H](Cc2cccnc2)C(=O)NCc2ccc(CN)cc2)cc1` [Example 173, N-[(R)-1-[(S)-1-(4-Aminomethyl-benzylcarbamoyl)-2-pyridin-3-yl-ethylcarbamoyl]-2-(4-ethoxy-phenyl)-ethyl]-4-chloro-benzamide] are 2.38 µg/mL (≈ 3.88 µM), 213 nM and more than 10000 nM.
In the same order, the values of `CCOc1ccc(C[C@@H](NC(=O)c2sccc2Cl)C(=O)N[C@@H](Cc2cccnc2)C(=O)NCc2ccc(CN)cc2)cc1` [Example 175, 3-Chloro-thiophene-2-carboxylic acid [(R)-1-[(S)-1-(4-aminomethyl-benzylcarbamoyl)-2-pyridin-3-yl-ethylcarbamoyl]-2-(4-ethoxy-phenyl)-ethyl]-amide] are 23.4 µg/mL (≈ 37.7 µM), 3 nM and more than 10000 nM.
Regarding `CCOc1ccc(C[C@@H](NC(=O)c2ccc(OC)cc2)C(=O)N[C@@H](Cc2cccnc2)C(=O)NCc2ccc(CN)cc2)cc1` [Example 160, N-[(R)-1-[(S)-1-(4-Aminomethyl-benzylcarbamoyl)-2-pyridin-3-yl-ethylcarbamoyl]-2-(4-ethoxy-phenyl)-ethyl]-4-methoxy-benzamide], the solubility at 1 h in series [1] is 20.4 µg/mL (≈ 33.5 µM). In addition, the IC50 in series [2] is 10 nM; in series [3] it was more than 10000 nM.
For `CCOc1ccc(C[C@@H](NC(=O)c2ccc(F)cc2)C(=O)N[C@@H](Cc2ccccc2)C(=O)NCc2ccc(CN)cc2)cc1` [Example 99, N-[(R)-1-[(S)-1-(4-Aminomethyl-benzylcarbamoyl)-2-phenyl-ethylcarbamoyl]-2-(4-ethoxy-phenyl)-ethyl]-4-fluoro-benzamide], in that order: 2.88 µg/mL (≈ 4.83 µM), 95 nM and more than 10000 nM.
`CCOc1ccc(C[C@@H](NS(=O)(=O)c2ccc(Cl)cc2)C(=O)N[C@@H](Cc2ccccc2)C(=O)NCc2ccc(CN)cc2)cc1` [Example 84, (R)-N-[(S)-1-(4-Aminomethyl-benzylcarbamoyl)-2-phenyl-ethyl]-2-(4-chloro-benzenesulfonylamino)-3-(4-ethoxy-phenyl)-propionamide]: the solubility at 1 h in series [1] worked out at 0.5 µg/mL (≈ 0.77 µM). The IC50 turned out to be 219 nM in series [2] and 1200 nM in series [3].
For `CCOc1ccc(C[C@@H](NC(=O)c2[nH]ccc2C)C(=O)N[C@@H](Cc2ccccc2)C(=O)NCc2ccc(CN)cc2)cc1` [Example 124, 3-Methyl-1H-pyrrole-2-carboxylic acid [(R)-1-[(S)-1-(4-aminomethyl-benzylcarbamoyl)-2-phenyl-ethylcarbamoyl]-2-(4-ethoxy-phenyl)-ethyl]-amide], in that order: 64.5 µg/mL (≈ 111 µM), 20 nM and 8400 nM.
For `CCOc1ccc(C[C@@H](NC(=O)c2ccccc2)C(=O)N[C@@H](Cc2cscn2)C(=O)NCc2ccc(CN)cc2)cc1` [Example 152, N-[(R)-1-[(S)-1-(4-Aminomethyl-benzylcarbamoyl)-2-thiazol-4-yl-ethylcarbamoyl]-2-(4-ethoxy-phenyl)-ethyl]-benzamide], in that order: 122 µg/mL (≈ 209 µM), 23 nM and more than 10000 nM.
In the same order, the values of `CCOc1ccc(C[C@@H](NC(=O)c2cccs2)C(=O)N[C@@H](Cc2cccnc2)C(=O)NCc2ccc(CN)cc2)cc1` [Example 162, Thiophene-2-carboxylic acid [(R)-1-[(S)-1-(4-aminomethyl-benzylcarbamoyl)-2-pyridin-3-yl-ethylcarbamoyl]-2-(4-ethoxy-phenyl)-ethyl]-amide] are 69.7 µg/mL (≈ 119 µM), 10 nM and more than 10000 nM.
Consider `CCOc1ccc(C[C@@H](NC(=O)c2ccncc2)C(=O)N[C@@H](Cc2ccccc2)C(=O)NCc2ccc(CN)cc2)cc1` [Example 71, N-[(R)-1-[(S)-1-(4-Aminomethyl-benzylcarbamoyl)-2-phenyl-ethylcarbamoyl]-2-(4-ethoxy-phenyl)-ethyl]-isonicotinamide], for which the solubility at 1 h in series [1] was found to be 22.1 µg/mL (≈ 38.1 µM). Moreover, the IC50 was 77 nM in series [2] and more than 10000 nM in series [3].
In the same order, the values of `CCOc1ccc(C[C@@H](NC(=O)c2ccno2)C(=O)N[C@@H](Cc2ccccc2)C(=O)NCc2ccc(CN)cc2)cc1` [Example 79, Isoxazole-5-carboxylic acid [(R)-1-[(S)-1-(4-aminomethyl-benzylcarbamoyl)-2-phenyl-ethylcarbamoyl]-2-(4-ethoxy-phenyl)-ethyl]-amide] are 2.4 µg/mL (≈ 4.21 µM), 38 nM and 8600 nM.
Take `CCOc1ccc(C[C@@H](NC(=O)c2ccccc2)C(=O)N[C@@H](Cc2cccs2)C(=O)NCc2ccc(CN)cc2)cc1` [Example 150, N-[(R)-1-[(S)-1-(4-Aminomethyl-benzylcarbamoyl)-2-thiophen-2-yl-ethylcarbamoyl]-2-(4-ethoxy-phenyl)-ethyl]-benzamide]: the solubility at 1 h in series [1] came to 0.12 µg/mL (≈ 0.205 µM). In addition, the IC50 in series [2] was 51 nM; in series [3], more than 10000 nM.
In the case of `CCOc1ccc(C[C@@H](NC(=O)c2ccccn2)C(=O)N[C@@H](Cc2ccccc2)C(=O)NCc2ccc(CN)c(Cl)c2)cc1` [Example 159, Pyridine-2-carboxylic acid [(R)-1-[(S)-1-(4-aminomethyl-3-chloro-benzylcarbamoyl)-2-phenyl-ethylcarbamoyl]-2-(4-ethoxy-phenyl)-ethyl]-amide], the solubility at 1 h in series [1] is 1.15 µg/mL (≈ 1.87 µM). The IC50 in series [2] was 15 nM; in series [3], more than 10000 nM.
For `CCOc1ccc(C[C@@H](NC(=O)C2CCCCC2)C(=O)N[C@@H](Cc2ccccc2)C(=O)NCc2ccc(CN)cc2)cc1` [Example 75, Cyclohexanecarboxylic acid [(R)-1-[(S)-1-(4-aminomethyl-benzylcarbamoyl)-2-phenyl-ethylcarbamoyl]-2-(4-ethoxy-phenyl)-ethyl]-amide], in that order: 1.06 µg/mL (≈ 1.81 µM), 270 nM and more than 10000 nM.
In the same order, the values of `CCOc1ccc(C[C@@H](NC(=O)c2ccncc2)C(=O)N[C@@H](Cc2csc3ccccc23)C(=O)NCc2ccc(CN)cc2)cc1` [Example 178, N-[(R)-1-[(S)-1-(4-Aminomethyl-benzylcarbamoyl)-2-benzo[b]thiophen-3-yl-ethylcarbamoyl]-2-(4-ethoxy-phenyl)-ethyl]-isonicotinamide] are 1.54 µg/mL (≈ 2.42 µM), 42 nM and more than 10000 nM.
For the compound `CCOc1ccc(C[C@@H](NC(=O)c2ccccc2)C(=O)N[C@@H](Cc2ccccc2)C(=O)NCc2ccc(CN)c(F)c2)cc1` [Example 154, N-[(R)-1-[(S)-1-(4-Aminomethyl-3-fluoro-benzylcarbamoyl)-2-phenyl-ethylcarbamoyl]-2-(4-ethoxy-phenyl)-ethyl]-benzamide], in series [1], the solubility at 1 h was 3.14 µg/mL (≈ 5.26 µM). Also, the IC50 is 21 nM in series [2] and more than 10000 nM in series [3].
As to `CCOc1ccc(C[C@@H](NC(=O)c2sccc2N)C(=O)N[C@@H](Cc2ccccc2)C(=O)NCc2ccc(CN)cc2)cc1` [Example 125, 3-Amino-thiophene-2-carboxylic acid [(R)-1-[(S)-1-(4-aminomethyl-benzylcarbamoyl)-2-phenyl-ethylcarbamoyl]-2-(4-ethoxy-phenyl)-ethyl]-amide], in series [1], the solubility at 1 h came out at 43.6 µg/mL (≈ 72.7 µM). In addition, the IC50 in series [2] came to 10 nM; in series [3] it was 7000 nM.
In the case of `CCOc1ccc(C[C@@H](NC(=O)c2sccc2Cl)C(=O)N[C@@H](Cc2ccccc2)C(=O)NCc2ccc(CN)cc2)cc1` [Example 116, 3-Chloro-thiophene-2-carboxylic acid [(R)-1-[(S)-1-(4-aminomethyl-benzylcarbamoyl)-2-phenyl-ethylcarbamoyl]-2-(4-ethoxy-phenyl)-ethyl]-amide], the solubility at 1 h in series [1] came to 1.39 µg/mL (≈ 2.24 µM). In addition, the IC50 in series [2] was determined as 18 nM; in series [3] it was 6300 nM.
In the same order, the values of `CCOc1ccc(C[C@@H](NC(=O)c2cccs2)C(=O)N[C@@H](Cc2ccccc2)C(=O)NCc2ccc(CN)cc2)cc1` [Example 73, Thiophene-2-carboxylic acid [(R)-1-[(S)-1-(4-aminomethyl-benzylcarbamoyl)-2-phenyl-ethylcarbamoyl]-2-(4-ethoxy-phenyl)-ethyl]-amide] are 5.1 µg/mL (≈ 8.72 µM), 25 nM and 9300 nM.

Source of the values: patent US9234000B2, “Benzylamine derivatives as inhibitors of plasma kallikrein” (KalVista Pharmaceuticals Limited, priority 2011, dated 2016).
